Measured values as given in ChEMBL document CHEMBL3414492, “Enhancing the cellular anti-proliferation activity of pyridazinones as c-met inhibitors using docking analysis” (Eur J Med Chem, 2015).
The source made the active and inactive calls. The calls are words filed in the database; no cut-off is given here.

Tests used:
EBC-1 = assay: Inhibition of cell proliferation of human EBC1 cells at 10 uM after 72 hrs by SRB assay; format: functional
[1] = biological target: T1, Hepatocyte growth factor receptor (Homo sapiens, UniProt P08581); assay: Inhibition of recombinant c-Met (unknown origin) at 10 uM using poly (Glu,Tyr)4:1 substrate incubated for 60 mins by ELISA method
[2] = Inhibition of cell proliferation of human EBC1 cells after 72 hrs by SRB assay; settings: EBC-1, 72 h
[3] = biological target: T1, Hepatocyte growth factor receptor; assay: Inhibition of recombinant c-Met (unknown origin) using poly (Glu,Tyr)4:1 substrate incubated for 60 mins by ELISA method

Compound	IC50 [2]	further results
Cc1ccc(Nc2ccc(=O)n(Cc3cccc(NC(=O)OCCCCN(C)C)c3)n2)cc1		inhibition (EBC-1): inactive; inhibition [1]: 55.5%
CN(C)CCOCCOC(=O)Nc1cccc(Cn2nc(-n3ccc4ccc(F)cc43)ccc2=O)c1	≤ 1 µM	
CCOC(=O)Nc1cccc(Cn2nc(-n3ccc4ccc(F)cc43)ccc2=O)c1		IC50 [3]: > 10 µM
CN1CCN(CCCCOC(=O)Nc2cccc(Cn3nc(-n4ccc5ccc(F)cc54)ccc3=O)c2)CC1	≤ 0.1 µM	
CN(C)CCOC(=O)Nc1cccc(Cn2nc(-n3ccc4ccc(F)cc43)ccc2=O)c1	≤ 1 µM	
O=c1ccc(-n2ccc3ccc(F)cc32)nn1Cc1cccc(-c2ncc(OCCN3CCOCC3)cn2)c1	0.124 µM	
CN(C)CCCCOC(=O)Nc1cccc(Cn2nc(Nc3cccc(Cl)c3)ccc2=O)c1		inhibition (EBC-1): inactive
Cc1ccccc1Nc1ccc(=O)n(Cc2ccccc2NC(=O)OCCCCN(C)C)n1		IC50 [3]: > 10 µM
CN(C)CCCOC(=O)Nc1cccc(Cn2nc(-n3ccc4ccc(F)cc43)ccc2=O)c1	≤ 1 µM	
CN(C)CCCCCOC(=O)Nc1cccc(Cn2nc(-n3ccc4ccc(F)cc43)ccc2=O)c1	≤ 0.1 µM	
COCCOc1ccc2c(OCCn3nc(-n4ccc5ccc(F)cc54)ccc3=O)ccnc2c1	0.0211 µM	
Cc1ccccc1Nc1ccc(=O)n(Cc2ccc(NC(=O)OCCCCN(C)C)cc2)n1		IC50 [3]: > 10 µM
CN1CCN(CCCOc2cnc(-c3cccc(Cn4nc(-n5ccc6ccc(F)cc65)ccc4=O)c3)nc2)CC1	0.198 µM	
COC(=O)CCCCOC(=O)Nc1cccc(Cn2nc(-n3ccc4ccc(F)cc43)ccc2=O)c1	> 10 µM	
CN(C)CCCCOC(=O)Nc1cccc(Cn2nc(Nc3ccccc3F)ccc2=O)c1		inhibition (EBC-1): inactive
CN(C)CCCCOC(=O)Nc1cccc(Cn2nc(-n3ccc4ccc(F)cc43)ccc2=O)c1	≤ 1 µM	
Cc1ccccc1Nc1ccc(=O)n(Cc2cccc(NC(=O)OCCCCN(C)C)c2)n1		inhibition (EBC-1): inactive
